The results in this text go back to patent publication US12268697B2, “Oxysterols and methods of use thereof” (Sage Therapeutics, Inc., priority 2015, dated 2025).

The target in this experiment is T1, GlunN1/GluN2A glutamate receptors (Homo sapiens, UniProt Q05586+Q12879).
T1 construct: expressed in transfected cells
The experiment is described as follows: Whole-cell patch clamp of mammalian cells (Ionworks Barracuda, IWB), NMDA potentiation. The experiment is classed as cell-based. The conditions noted are these: 3 μM test article; HEK293 cells expressing human GRIN1/GRIN2A; co-application with EC20 L-glutamate and 30 μM glycine. The protocol: NMDA potentiation was assessed using either whole cell patch clamp of mammalian cells which expressed NMDA receptors.
Whole-Cell Patch Clamp of Mammalian Cells (Ionworks Barracuda (IWB)
The whole-cell patch-clamp technique was used to investigate the effects of compounds on GlunN1/GluN2A glutamate receptors expressed in mammalian cells.
HEK293 cells were transformed with adenovirus 5 DNA and transfected with cDNA encoding the human GRIN1/GRIN2A genes. Stable transfectants were selected using G418 and Zeocin-resistance genes incorporated into the expression plasmid and selection pressure maintained with G418 and Zeocin in the medium. Cells were cultured in Dulbecco's Modified Eagle Medium/Nutrient Mixture (D-MEM/F-12) supplemented with 10% fetal bovine serum, 100 μg/ml penicillin G sodium, 100 μg/ml streptomycin sulphate, 100 μg/ml Zeocin, 5 μg/ml blasticidin and 500 μg/ml G418.
Test article effects were evaluated in 8-point concentration-response format (4 replicate wells/concentration). […]
• a) Intracellular solution (mM): 50 mM CsCl, 90 mM CsF, 2 mM MgCl2, 5 mM EGTA, 10 mM HEPES. […] Cell suspension will be pipetted into the wells (9 μL per well) of the PPC planar electrode. • b) Whole-cell recording configuration will be established via patch perforation with membrane currents recorded by on-board patch clamp amplifiers. • c) Two recordings (scans) will be performed. […]
For orientation: The patch-clamp technique gives a direct electrical read-out from membranes.

T1 sequence (Q12879 23-1464, other chains not shown): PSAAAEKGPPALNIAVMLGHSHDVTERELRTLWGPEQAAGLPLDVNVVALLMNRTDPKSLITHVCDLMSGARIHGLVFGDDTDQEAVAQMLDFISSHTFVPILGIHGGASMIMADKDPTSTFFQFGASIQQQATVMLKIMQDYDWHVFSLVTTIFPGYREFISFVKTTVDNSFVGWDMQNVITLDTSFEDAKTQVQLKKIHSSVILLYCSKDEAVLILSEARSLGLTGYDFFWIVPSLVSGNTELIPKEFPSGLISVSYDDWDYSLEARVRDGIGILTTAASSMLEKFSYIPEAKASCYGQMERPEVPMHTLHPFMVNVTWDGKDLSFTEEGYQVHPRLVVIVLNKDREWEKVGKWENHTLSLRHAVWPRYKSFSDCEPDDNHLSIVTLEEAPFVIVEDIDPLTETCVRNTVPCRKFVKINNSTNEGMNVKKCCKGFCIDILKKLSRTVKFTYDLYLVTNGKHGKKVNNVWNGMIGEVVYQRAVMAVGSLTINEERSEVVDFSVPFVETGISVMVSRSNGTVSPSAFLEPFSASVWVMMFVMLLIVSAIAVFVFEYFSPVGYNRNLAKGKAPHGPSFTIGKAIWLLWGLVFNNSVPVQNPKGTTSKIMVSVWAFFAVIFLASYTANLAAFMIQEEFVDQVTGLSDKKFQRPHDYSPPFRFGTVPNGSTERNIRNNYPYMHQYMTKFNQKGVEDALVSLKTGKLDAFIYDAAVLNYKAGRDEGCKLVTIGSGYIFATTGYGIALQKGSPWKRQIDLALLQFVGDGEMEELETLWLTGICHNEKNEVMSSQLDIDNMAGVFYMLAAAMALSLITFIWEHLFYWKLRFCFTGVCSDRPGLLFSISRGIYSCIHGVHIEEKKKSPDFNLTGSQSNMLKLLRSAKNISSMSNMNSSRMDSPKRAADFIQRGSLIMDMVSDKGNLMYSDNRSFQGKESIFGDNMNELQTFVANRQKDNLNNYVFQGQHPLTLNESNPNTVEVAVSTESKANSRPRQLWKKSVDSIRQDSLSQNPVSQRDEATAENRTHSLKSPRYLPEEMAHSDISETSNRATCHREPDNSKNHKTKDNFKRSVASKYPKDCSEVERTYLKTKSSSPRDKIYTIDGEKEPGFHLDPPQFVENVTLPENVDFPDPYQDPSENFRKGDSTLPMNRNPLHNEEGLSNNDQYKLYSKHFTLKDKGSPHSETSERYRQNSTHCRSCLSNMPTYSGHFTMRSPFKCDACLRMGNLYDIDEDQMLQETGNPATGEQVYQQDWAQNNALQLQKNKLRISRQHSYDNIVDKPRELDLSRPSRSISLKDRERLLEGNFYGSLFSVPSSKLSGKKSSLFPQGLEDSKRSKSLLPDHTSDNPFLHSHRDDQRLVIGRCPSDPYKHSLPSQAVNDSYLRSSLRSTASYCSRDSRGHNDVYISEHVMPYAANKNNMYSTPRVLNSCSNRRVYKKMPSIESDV

With `C[C@H](CCC[C@@H](C)O)[C@H]1CC[C@H]2[C@@H]3CC[C@H]4C[C@@](C)(O)CC[C@]4(C)[C@H]3CC[C@]12C` [Compound 24], the “GluN2A PCA IWB Ephys % potentiation at 3 μM” value is “B (“B” indicates potentiation of >100%)”.
